# What was measured:
# [1] = test system: fibrinolysis in a blood sample with reduced platelet function; test: Functional Fibrinogen (FF) TEG assay with and without tranexamic acid (TXA)
# [2] = test system: fibrinolysis in citrated blood with FF reagent (GPIIb/IIIa receptor antagonist); test: Functional Fibrinogen TEG assay with/without TXA, blood spiked with increasing t-PA, ΔLY30; design: species or system human; conditions: 15 healthy donors, eight t-PA concentrations, FIG. 10
# Description: The two TEG cups for each of the fifteen donors at the eight different t-PA concentrations were analyzed on a TEG 5000 device.
# [3] = test system: fibrinolysis in citrated whole blood; test: Citrated Kaolin (CK) TEG assay, blood spiked with increasing t-PA, LY30; design: species or system human; conditions: 15 healthy donors, eight t-PA concentrations, FIG. 9
# Description: For the Citrated Kaolin group, citrated blood from each of the donors (e.g., whole blood collected into a tube containing sodium citrate (thereby creating a ratio blood to citrate of approximately 9:1) is collected. For eight different tPA concentrations, 0.5 ml of the blood was gently mixed with Kaolin (a coagulation activator) and increasing concentrations of t-PA to induce fibrinolysis. Aliquots were transferred to 37° C. TEG cups, and the samples were analyzed using the TEG 5000 device, and the LY30 calculated for each of the 15 donors at each of the tPA concentrations. The results plotting the LY30 against the t-PA concentration are shown in FIG. 9.
Molecule,"LY30 ([1]; TXA-treated sample of FIG. 6, amplitude at 74 minutes, the sample not treated with TXA had LY30 approximately 50%)","TEG tracing of the TXA-treated portion compared with the portion not treated with TXA ([1]; blood from a patient with fibrinolysis or hyperfibrinolysis, FIGS. 5 and 6, divergence from about 2 minutes)",Detection threshold [tPA] for ΔLY30 [2],Detection threshold [tPA] for CK-LY30 [3]
"NC[C@H]1CC[C@H](C(=O)O)CC1 [TXA, tranexamic acid]",approximately 0.1%,"higher amplitude, faster growing TEG tracing",–,–
"tPA: tissue plasminogen activator, converts inactive plasminogen to active plasmin; spiked into blood to induce fibrinolysis",–,–,25 to 50 ng/mL,75 to 100 ng/mL

# Reference: patent US20150316565A1, “Methodologies and Reagents for Detecting Fibrinolysis and Hyperfibrinolysis” (Haemonetics Corporation, priority 2014, published 2015)
